Broadly, the IC50 is the point on the concentration scale where inhibition reaches its midpoint.

SMILES strings stand for the structures.

These results are taken from patent publication US9334269B2, “Carboxamides as inhibitors of voltage-gated sodium channels” (AMGEN INC., priority 2010, dated 2016).

The target of this experiment is T1, human Nav1.7 (hNav1.7) (Homo sapiens, UniProt Q15858).
T1 construct: expressed in transfected cells
As to the kind of experiment: hNav1.7 whole-cell patch-clamp electrophysiology (automated PatchXpress 7000A or manual) in stably expressing 293 cells. The format is cell-based. The essentials: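 Stably transfected 293 cells lacking endogenous sodium channels; peak current evoked by depolarizing pulses during increasing compound concentrations, automated at ~20% fractional inactivation, or manually at −140 mV (resting) and ~20% inactivation. Block taken at steady state, corrected for rundown; IC50 by Hill fit.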
On the technique in general: Patch clamp records ionic current or voltage across a cell membrane.

T1 sequence (Q15858 whole entry): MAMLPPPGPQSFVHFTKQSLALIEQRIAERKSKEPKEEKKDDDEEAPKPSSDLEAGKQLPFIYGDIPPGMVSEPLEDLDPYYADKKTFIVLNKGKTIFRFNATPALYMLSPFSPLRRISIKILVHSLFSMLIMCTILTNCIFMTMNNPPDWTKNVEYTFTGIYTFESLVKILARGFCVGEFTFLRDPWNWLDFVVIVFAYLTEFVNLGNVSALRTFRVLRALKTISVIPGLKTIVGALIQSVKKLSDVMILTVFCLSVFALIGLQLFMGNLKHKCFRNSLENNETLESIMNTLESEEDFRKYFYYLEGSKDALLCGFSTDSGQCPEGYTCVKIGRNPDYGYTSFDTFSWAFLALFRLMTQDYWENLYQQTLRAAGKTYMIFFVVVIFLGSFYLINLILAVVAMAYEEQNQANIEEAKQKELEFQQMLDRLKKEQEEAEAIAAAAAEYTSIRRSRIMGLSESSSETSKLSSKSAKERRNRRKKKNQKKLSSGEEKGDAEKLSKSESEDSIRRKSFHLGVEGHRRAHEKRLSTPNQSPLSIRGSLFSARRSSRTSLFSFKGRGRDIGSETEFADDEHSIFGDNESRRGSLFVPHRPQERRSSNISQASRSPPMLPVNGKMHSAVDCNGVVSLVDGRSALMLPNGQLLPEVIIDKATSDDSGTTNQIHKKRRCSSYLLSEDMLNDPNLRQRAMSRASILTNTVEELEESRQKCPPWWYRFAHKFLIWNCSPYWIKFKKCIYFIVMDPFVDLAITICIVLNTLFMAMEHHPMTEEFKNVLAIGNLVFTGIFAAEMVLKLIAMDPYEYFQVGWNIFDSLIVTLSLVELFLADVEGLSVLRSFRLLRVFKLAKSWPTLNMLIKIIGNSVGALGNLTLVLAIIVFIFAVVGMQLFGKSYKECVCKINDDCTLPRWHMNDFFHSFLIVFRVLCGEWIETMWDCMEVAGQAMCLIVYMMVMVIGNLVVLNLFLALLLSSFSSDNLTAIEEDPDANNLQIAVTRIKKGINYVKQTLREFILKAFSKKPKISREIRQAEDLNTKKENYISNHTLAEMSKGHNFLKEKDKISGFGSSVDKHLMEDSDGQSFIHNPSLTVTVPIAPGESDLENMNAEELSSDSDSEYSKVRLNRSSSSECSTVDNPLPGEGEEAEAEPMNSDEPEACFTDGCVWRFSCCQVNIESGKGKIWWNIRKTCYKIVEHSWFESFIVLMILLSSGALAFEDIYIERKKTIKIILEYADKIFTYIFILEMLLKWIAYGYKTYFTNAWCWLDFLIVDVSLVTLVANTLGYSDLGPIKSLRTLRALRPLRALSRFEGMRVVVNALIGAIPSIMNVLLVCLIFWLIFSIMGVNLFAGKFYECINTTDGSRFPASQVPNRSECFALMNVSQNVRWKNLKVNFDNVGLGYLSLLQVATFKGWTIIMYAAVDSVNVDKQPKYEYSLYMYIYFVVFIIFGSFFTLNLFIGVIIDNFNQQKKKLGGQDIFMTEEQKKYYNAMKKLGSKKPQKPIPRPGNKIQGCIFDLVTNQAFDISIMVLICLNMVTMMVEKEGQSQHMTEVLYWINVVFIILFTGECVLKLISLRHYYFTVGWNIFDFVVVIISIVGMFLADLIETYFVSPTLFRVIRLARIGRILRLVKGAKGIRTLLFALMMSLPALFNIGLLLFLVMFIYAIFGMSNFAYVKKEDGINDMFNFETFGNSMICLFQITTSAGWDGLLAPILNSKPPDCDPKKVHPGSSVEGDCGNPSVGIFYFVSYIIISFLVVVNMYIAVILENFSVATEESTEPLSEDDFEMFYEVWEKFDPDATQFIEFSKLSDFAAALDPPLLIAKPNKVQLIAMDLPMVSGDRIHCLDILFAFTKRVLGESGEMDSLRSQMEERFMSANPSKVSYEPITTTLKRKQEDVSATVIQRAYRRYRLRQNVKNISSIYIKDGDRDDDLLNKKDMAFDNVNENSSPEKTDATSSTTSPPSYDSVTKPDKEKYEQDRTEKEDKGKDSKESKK

`CNC(=O)c1cccc(Nc2ncnc(N3CCC(Oc4ccc(Cl)c(OC(F)(F)F)c4)CC3)n2)c1` [Example 166] yielded an IC50 (average IC50, human Nav1.7) of 4.05 µM.
The compound `CNC(=O)c1cccc(Nc2ncnc(N3CCN(c4ccc(Cl)cc4)CC3)n2)c1` [Example 157] registered an IC50 (average IC50, human Nav1.7) of 3.36 µM.
`CNC(=O)c1cccc(Nc2nccc(N3CC(Oc4ccc(F)c(F)c4)C3)n2)c1` [Example E, 3-((4-(3-(3,4-difluorophenoxy)-1-azetidinyl)-2-pyrimidinyl)amino)-N-methylbenzamide] yielded an IC50 (human Nav1.7 stably expressed in 293 cells, whole-cell patch clamp, average IC50 from Hill fit) of 1.6 µM.
Take `CNC(=O)c1cccc(Nc2ncnc(N3CCC(Oc4ccc(OCC(F)(F)F)cc4)CC3)n2)c1` [Example 101]: where the note is “average IC50, human Nav1.7”, the half-inhibitory concentration (IC50) was found to be 1.44 µM.
